Results from US9133158B2, “Bicyclic dihydroisoquinoline-1-one derivatives” (Hoffmann-La Roche Inc., priority 2011, dated 2015).

What follows are molecules tested against T1, human CYP11B2 (Homo sapiens, UniProt P19099) (assay: G-402 cellular enzyme assay, human CYP11B2 (aldosterone release, HTRF)). Settings: G-402 cells, 1 μM Deoxycorticosterone.
T1 construct: expressed in transfected cells
T1 sequence (P19099 25-503): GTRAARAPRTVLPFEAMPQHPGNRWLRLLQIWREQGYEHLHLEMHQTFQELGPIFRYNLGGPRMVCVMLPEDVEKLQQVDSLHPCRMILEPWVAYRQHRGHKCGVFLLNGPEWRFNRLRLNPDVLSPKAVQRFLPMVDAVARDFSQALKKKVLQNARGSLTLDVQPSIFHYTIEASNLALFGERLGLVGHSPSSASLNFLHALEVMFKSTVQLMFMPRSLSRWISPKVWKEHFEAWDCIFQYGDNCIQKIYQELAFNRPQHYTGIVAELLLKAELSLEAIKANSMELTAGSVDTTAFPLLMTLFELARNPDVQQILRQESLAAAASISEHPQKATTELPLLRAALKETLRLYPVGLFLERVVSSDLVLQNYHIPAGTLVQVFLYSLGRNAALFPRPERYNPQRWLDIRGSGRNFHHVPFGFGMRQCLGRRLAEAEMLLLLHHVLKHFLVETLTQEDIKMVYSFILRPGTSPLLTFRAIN
Format: cell-based
From the text: Herein we identified the use of the G-402 cell line as a host cell to ectopically express (transiently or stably) enzymes of the CYP11 family. Specifically we developed stable G-402 cells expressing ectopically human CYP11B1, human CYP11B2, human CYP11A1, cynmolgus CYP11B1 or cynomolgus CYP11B2 enzyme activity. Importantly the identified cell line G-402 expresses co-factors (adrenodoxin and adrenodoxin reductase) important for the activity of the CYP11 family and no relevant enzyme activity of the CYP11 family (in comparison to H295R cells) was detected in these cells. Therefore the G-402 cell line is uniquely suited as a host cell for the ectopic expression of enzymes from the CYP11 family.
G-402 cells can be obtained from ATCC(CRL-1440) and were originally derived from a renal leiomyoblastoma.
The expression plasmids contain the ORF for either human/cyno CYP11B1 or CYP11B2 under the control of a suitable promoter (CMV-promoter) and a suitable resistance marker (neomycin). Using standard techniques the expression plasmid is transfected into G-402 cells and these cells are then selected for expressing the given resistance markers. Individual cell-clones are then selected and assessed for displaying the desired enzymatic activity using 11-Deoxycorticosterone (Cyp11B2) or 11-Deoxycortisol (Cyp11B1) as a substrate.
G-402 cells expressing CYP11 constructs were established as described above and maintained in McCoy's 5a Medium Modified, ATCC Catalog No. 30-2007 containing 10% FCS and 400 μg/ml G418 (Geneticin) at 37° C. under an atmosphere of 5% CO2/95% air.
Cellular enzyme assays were performed in DMEM/F12 medium containing 2.5% charcoal treated FCS and appropriate concentration of substrate (0.3-10 uM 11-Deoxycorticosterone, 11-Deoxycortisol or Corticosterone). For assaying enzymatic activity, cells were plated onto 96 well plates and incubated for 16 h. An aliquot of the supernatant is then transferred and analyzed for the concentration of the expected product (Aldosterone for CYP11B2; Cortisol for CYP11B1). The concentrations of these steroids can be determined using HTRF assays from CisBio analyzing either Aldosterone or Cortisol.
Inhibition of the release of produced steroids can be used as a measure of the respective enzyme inhibition by test compounds added during the cellular enzyme assay. The dose dependent inhibition of enzymatic activity by a compound is calculated by means of plotting added inhibitor concentrations (x-axes) vs. measured steroid/product level (y-axes). The inhibition is then calculated by fitting the following 4-parameter sigmoidal function (Morgan-Mercer-Flodin (MMF) model) to the raw data points using the least squares method:
[formula] wherein, A is the maximum y value, B is the EC50 factor determined using XLFit, C is the minimum y value and D is the slope value.
EC50 values for compounds claimed herein were tested with the G402-based assay system described. Cyp11B2 enzyme activity was tested in presence of 1 μM Deoxycorticosterone and variable amounts of inhibitors; Cyp11B1 enzyme activity was tested in presence of 1 μM Deoxycortisol and variable amounts of inhibitors.

| SMILES | EC50 [nM] |
| --- | --- |
| CC(=O)NC1CCCc2c1cncc2N1CCc2cc(Cl)ccc2C1=O (single isomer, unassigned) [Example 320, N-((R or S)-6-Chloro-1-oxo-3,4,5′,6′,7′,8′-hexahydro-1H-[2,4′]biisoquinolinyl-8′-yl)-acetamide] | 8030 |
| CS(=O)(=O)NC1CCCc2c1cncc2N1CCc2cc(Cl)ccc2C1=O (single isomer, unassigned) [Example 324, N-((S or R)-6-Chloro-1-oxo-3,4,5′,6′,7′,8′-hexahydro-1H-[2,4′]biisoquinolinyl-8′-yl)-methanesulfonamide] | 2810 |
| CS(=O)(=O)NC1CCc2c1cncc2N1CCc2cc(Cl)ccc2C1=O (single isomer, unassigned) [Example 330, N-[(S or R)-4-(6-Chloro-1-oxo-3,4-dihydro-1H-isoquinolin-2-yl)-6,7-dihydro-5H-[2]pyrindin-7-yl]-methanesulfonamide] | > 30000 |
| CC(=O)NC1CCc2c1cncc2N1CCc2cc(Cl)ccc2C1=O (single isomer, unassigned) [Example 332, N-[(R or S)-4-(6-Chloro-1-oxo-3,4-dihydro-1H-isoquinolin-2-yl)-6,7-dihydro-5H-[2]pyrindin-7-yl]-acetamide] | 14800 |
| CS(=O)(=O)NC1CCc2c1cncc2N1Cc2cc(Cl)ccc2C1=O (single isomer, unassigned) [Example 335, N-[(S or R)-4-(5-Chloro-1-oxo-1,3-dihydro-isoindol-2-yl)-6,7-dihydro-5H-[2]pyrindin-7-yl]-methanesulfonamide] | 13800 |
| CCS(=O)(=O)NC1CCc2c1cncc2N1Cc2cc(Cl)ccc2C1=O (single isomer, unassigned) [Example 337, Ethanesulfonic acid [(S or R)-4-(5-chloro-1-oxo-1,3-dihydro-isoindol-2-yl)-6,7-dihydro-5H-[2]pyrindin-7-yl]-amide] | 24300 |
| CCC(=O)NC1CCc2c1cncc2N1Cc2cc(Cl)ccc2C1=O (single isomer, unassigned) [Example 338, N-[(S or R)-4-(5-Chloro-1-oxo-1,3-dihydro-isoindol-2-yl)-6,7-dihydro-5H-[2]pyrindin-7-yl]-propionamide] | > 30000 |
| CCC(=O)N[C@H]1CCCc2c1cncc2N1C(=O)c2ccc(Cl)cc2[C@@H]1CC (single isomer, unassigned) [Example 351, N-[(S or R)-4-((S or R)-5-Chloro-3-ethyl-1-oxo-1,3-dihydro-isoindol-2-yl)-5,6,7,8-tetrahydro-isoquinolin-8-yl]-propionamide] | 3660 |
| CC[C@H]1c2cc(Cl)ccc2C(=O)N1c1cncc2c1CC[C@@H]2NS(C)(=O)=O (single isomer, unassigned) [Example 370, N-[(S or R)-4-((S or R)-5-Chloro-3-ethyl-1-oxo-1,3-dihydro-isoindol-2-yl)-6,7-dihydro-5H-[2]pyrindin-7-yl]-methanesulfonamide] | 195 |
| CC(=O)N[C@H]1CCCc2c1cncc2N1C(=O)c2ccc(Cl)cc2[C@@H]1C1CC1 (single isomer, unassigned) [Example 371, N-[(S or R)-4-((S or R)-5-Chloro-3-cyclopropyl-1-oxo-1,3-dihydro-isoindol-2-yl)-5,6,7,8-tetrahydro-isoquinolin-8-yl]-acetamide] | 4260 |
| CC(=O)N[C@H]1CCCc2c1cncc2N1C(=O)c2ccc(Cl)cc2[C@H]1C1CC1 (single isomer, unassigned) [Example 373, N-[(S or R)-4-((R or S)-5-Chloro-3-cyclopropyl-1-oxo-1,3-dihydro-isoindol-2-yl)-5,6,7,8-tetrahydro-isoquinolin-8-yl]-acetamide] | > 30000 |
| CC(=O)N[C@@H]1CCCc2c1cncc2N1C(=O)c2ccc(Cl)cc2[C@@H]1C1CC1 (single isomer, unassigned) [Example 374, N-[(R or S)-4-((S or R)-5-Chloro-3-cyclopropyl-1-oxo-1,3-dihydro-isoindol-2-yl)-5,6,7,8-tetrahydro-isoquinolin-8-yl]-acetamide] | 354 |
| CCC(=O)N[C@@H]1CCc2c1cncc2N1C(=O)c2ccc(Cl)cc2[C@@H]1C (single isomer, unassigned) [Example 375, N-[(R or S)-4-((S or R)-5-Chloro-3-methyl-1-oxo-1,3-dihydro-isoindol-2-yl)-6,7-dihydro-5H-[2]pyrindin-7-yl]-propionamide] | 5620 |
| CC(=O)NC1CCc2c1cncc2N1Cc2cc(Cl)ccc2C1=O (single isomer, unassigned; (-)) [Example 318, (−)-N—[(S or R)-4-(5-Chloro-1-oxo-1,3-dihydro-isoindol-2-yl)-6,7-dihydro-5H-[2]pyrindin-7-yl]-acetamide] | > 30000 |
| CCS(=O)(=O)NCc1cncc(N2CCc3cc(Cl)ccc3C2=O)c1 [Example 25, Ethanesulfonic acid [5-(6-chloro-1-oxo-3,4-dihydro-1H-isoquinolin-2-yl)-pyridin-3-ylmethyl]-amide] | 401 |
| CNC(=O)c1cncc(N2CCc3cc(Cl)ccc3C2=O)c1 [Example 43, 5-(6-Chloro-1-oxo-3,4-dihydro-1H-isoquinolin-2-yl)-N-methyl-nicotinamide] | 372 |
| O=C(Nc1ccc(F)cc1)c1cncc(N2CCc3cc(Cl)ccc3C2=O)c1 [Example 45, 5-(6-Chloro-1-oxo-3,4-dihydro-1H-isoquinolin-2-yl)-N-(4-fluoro-phenyl)-nicotinamide] | 295 |
| O=C1c2ccc(Cl)cc2CCN1c1cncc(N2C(=O)CC[C@H]2CO)c1 [Example 50, 6-Chloro-2-[5-((S)-2-hydroxymethyl-5-oxo-pyrrolidin-1-yl)-pyridin-3-yl]-3,4-dihydro-2H-isoquinolin-1-one] | 1500 |
| O=C1c2ccc(Cl)cc2CCN1c1cncnc1 [Example 51, 6-Chloro-2-pyrimidin-5-yl-3,4-dihydro-2H-isoquinolin-1-one] | 2680 |
| O=c1c2ccc(Cl)cc2ccn1-c1cncc(F)c1 [Example 54, 6-Chloro-2-(5-fluoro-pyridin-3-yl)-2H-isoquinolin-1-one] | 212 |
| Cn1cnnc1-c1cncc(N2CCc3cc(Cl)ccc3C2=O)c1 [Example 58, 6-Chloro-2-[5-(4-methyl-4H-[1,2,4]triazol-3-yl)-pyridin-3-yl]-3,4-dihydro-2H-isoquinolin-1-one] | 2060 |
| COC(OC)c1ccncc1N1CCc2cc(Cl)ccc2C1=O [Example 61, 6-Chloro-2-(4-dimethoxymethyl-pyridin-3-yl)-3,4-dihydro-2H-isoquinolin-1-one] | 2830 |
| CC(O)c1c(F)cncc1N1CCc2cc(Cl)ccc2C1=O (stereo not drawn) [Example 62, 6-Chloro-2-[5-fluoro-4-(l-hydroxy-ethyl)-pyridin-3-yl]-3,4-dihydro-2H-isoquinolin-1-one] | 935 |
| N#Cc1ccncc1N1CCc2cc(Cl)ccc2C1=O [Example 74, 3-(6-Chloro-1-oxo-3,4-dihydro-1H-isoquinolin-2-yl)-isonicotinonitrile] | 449 |
| CC1Cc2cc(Cl)ccc2C(=O)N1c1cccnc1 (stereo not drawn) [Example 88, 6-Chloro-3-methyl-2-pyridin-3-yl-3,4-dihydro-2H-isoquinolin-1-one] | 761 |
| CC1Cc2cc(Cl)ccc2C(=O)N1c1cncnc1 (stereo not drawn) [Example 90, 6-Chloro-3-methyl-2-pyrimidin-5-yl-3,4-dihydro-2H-isoquinolin-1-one] | 1230 |
| C[C@@H]1Cc2cc(Cl)ccc2C(=O)N1c1cccnc1 [Example 91, (R)-6-Chloro-3-methyl-2-pyridin-3-yl-3,4-dihydro-2H-isoquinolin-1-one] | 395 |
